The EC50 is the concentration that produces a half-maximal response.

The experiment can be described thus: Inhibition of PI3Kbeta human in PTEN wild type HCC1954 cells assessed as cell growth inhibition.

For the compound `Cc1nn2c(NC(N)=O)cc(N3CCOCC3)nc2c1Cc1cccc(C(F)(F)F)c1C`, the 50% effective concentration (EC50) turned out to be 12.6 µM.
For the compound `Cc1nn2c(N)cc(N3CCOCC3)nc2c1Cc1cccc(C(F)(F)F)c1C`, the concentration giving a half-maximal response (EC50) was 12.6 µM.
In the case of `Cc1nn2c(O)cc(N3CCOCC3)nc2c1Cc1cccc(C(F)(F)F)c1C` it was 15.8 µM; in that of `Cc1c(Cc2cnn3c(O)cc(N4CCOCC4)nc23)cccc1C(F)(F)F`, 15.8 µM.
In the case of `Cc1nn2c(O)cc(C3CCOCC3)nc2c1Cc1cccc(C(F)(F)F)c1C`, the EC50 worked out at 25.1 µM.
For `Cc1nn2c(O)cc(N3CCOCC3)nc2c1Cc1cccc2ccccc12`, the EC50 was 31.6 µM.

For the origin of these results see BindingDB's records for doi:10.1021/ml300330m (Glaxosmithkline, 2013).
